Literature values as cited in patent US7378519B2, “Adduct of topiramate and tramadol hydrochloride and uses thereof” (Cilag GmbH International, priority 2002, dated 2008).
Structures can show the parent of a compound that is named as a salt.

System: Chung model of post-nerve constriction injury
Settings: each drug alone, as the dose is escalated

SMILES	MPE (Maximum Possible Effect) reached [% MPE]
COc1cccc(C2(O)CCCCC2CN(C)C)c1 (single isomer, unassigned) [tramadol hydrochloride, (1R,2R or 1S,2S)-2-[(dimethylamino)methyl]-1-(3-methoxyphenyl)-cyclohexan-1-ol]	100
CC1(C)O[C@@H]2[C@@H](CO[C@@]3(COS(N)(=O)=O)OC(C)(C)O[C@@H]23)O1 [topiramate, 2,3:4,5-bis-O-(1-methylethylidene)-β-D-fructopyranose sulfamate]	100
